Measured values: patent publication US20100267561A1, “HERBICIDAL PYRIDAZINONE DERIVATIVES” (priority 2007, published 2010)

Tests used:
Test in all cases: Test B pre-/postemergence plant response
Type in all cases: in vivo
[1] = test system: woolly cupgrass (Eriochloa villosa)
Excerpt: (§1) Seeds of plant species selected from blackgrass (Alopecurus myosuroides), downy bromegrass (Bromus tectorum), green foxtail (Setaria viridis), Italian ryegrass (Lolium multiflorum), wheat (Triticum aestivum), wild oat (Avena fatua), catchweed bedstraw (Galium aparine), bermudagrass (Cynodon dactylon), surinam grass (Brachiaria decumbens), cocklebur (Xanthium strumarium), corn (Zea mays), large crabgrass (Digitaria sanguinalis), woolly cupgrass (Eriochloa villosa), giant foxtail (Setaria faberii), goosegrass (Eleusine indica), johnsongrass (Sorghum halepense), kochia (Kochia scoparia), lambsquarters (Chenopodium album), morningglory (Ipomoea coccinea), eastern black (E.B.) nightshade (Solanum ptycanthum), yellow nutsedge (Cyperus esculentus), pigweed (Amaranthus retroflexus), common ragweed (Ambrosia elation), Russian thistle (Salsola iberica), soybean (Glycine max), common (oilseed) sunflower (Helianthus annuus), and velvetleaf (Abutilon theophrasti) were planted and treated preemergence with test chemicals formulated in a non-phytotoxic solvent mixture which included a surfactant.
(§2) At the same time, plants selected from these crop and weed species and also winter barley (Hordeum vulgare), canarygrass (Phalaris minor), chickweed (Stellaria media) and windgrass (Apera spica-venti) were treated with postemergence applications of some of the test chemicals formulated in the same manner. Plants ranged in height from 2 to 18 cm (1- to 4-leaf stage) for postemergence treatments.
(§3) Plant species in the flooded paddy test consisted of rice (Oryza sativa), umbrella sedge (Cyperus difformis), ducksalad (Heteranthera limosa) and barnyardgrass (Echinochloa crus-galli) grown to the 2-leaf stage for testing. At time of treatment, test pots were flooded to 3 cm above the soil surface, treated by application of test compounds directly to the paddy water, and then maintained at that water depth for the duration of the test. Treated plants and controls were maintained in a greenhouse for 13 to 15 days, after which time all species were compared to controls and visually evaluated. Plant response ratings, summarized in Table B, are based on a scale of 0 to 100 where 0 is no effect and 100 is complete control. A dash (-) response means no test result.

[2] = test system: yellow nutsedge (Cyperus esculentus)
Excerpt: as §1, §2, §3

[3] = test system: pigweed (Amaranthus retroflexus)
Excerpt: as §1, §2, §3

wild oat (Avena fatua) = test system: wild oat (Avena fatua)
Excerpt: as §1, §2, §3

[4] = test system: Italian ryegrass (Lolium multiflorum)
Excerpt: as §1, §2, §3

[5] = test system: green foxtail (Setaria viridis)
Excerpt: as §1, §2, §3

[6] = test system: catchweed bedstraw (Galium aparine); conditions: Preemergence
Excerpt: as §1, §2, §3

[7] = test system: eastern black (E.B.) nightshade (Solanum ptycanthum); conditions: Preemergence
Excerpt: as §1, §2, §3

[8] = test system: johnsongrass (Sorghum halepense)
Excerpt: as §1, §2, §3

[9] = test system: morningglory (Ipomoea coccinea)
Excerpt: as §1, §2, §3

[10] = test system: blackgrass (Alopecurus myosuroides)
Excerpt: as §1, §2, §3

[11] = test system: velvetleaf (Abutilon theophrasti)
Excerpt: as §1, §2, §3

[12] = test system: giant foxtail (Setaria faberii)
Excerpt: as §1, §2, §3

[13] = test system: downy bromegrass (Bromus tectorum)
Excerpt: as §1, §2, §3

[14] = Postemergence, 31 g ai/ha, scale 0 to 100, 0 no effect, 100 complete control
[15] = Postemergence, 62 g ai/ha, scale 0 to 100
[16] = Postemergence, 125 g ai/ha, scale 0 to 100
[17] = Postemergence, 250 g ai/ha, scale 0 to 100
[18] = Preemergence, 31 g ai/ha, 0 to 100 scale, 0 no effect, 100 complete control
[19] = Preemergence, 62 g ai/ha, scale 0 to 100
[20] = Preemergence, 125 g ai/ha, scale 0 to 100
[21] = Preemergence, 250 g ai/ha, scale 0 to 100
[22] = Preemergence, 16 g ai/ha, scale 0 to 100 (0 no effect, 100 complete control)
[23] = Preemergence, 8 g ai/ha, scale 0 to 100
[24] = Preemergence, 31 g ai/ha, scale 0 to 100 (0 no effect, 100 complete control)
[25] = 16 g ai/ha, scale 0 to 100 (0 no effect, 100 complete control)

Cc1cc(-c2ccc(Br)cc2)nn1-c1c(OC(=O)C2CC2)cnn(C)c1=O [Compound 5]
Plant response rating, Cupgrass, Woolly [1, 14]: 95
Plant response rating, Cupgrass, Woolly [1, 15]: 100
Plant response rating, Cupgrass, Woolly [1, 16]: 100
Plant response rating, Cupgrass, Woolly [1, 17]: 100
Plant response rating, Cupgrass, Woolly [1, 18]: 50
Plant response rating, Cupgrass, Woolly [1, 19]: 90
Plant response rating, Cupgrass, Woolly [1, 20]: 100
Plant response rating, Cupgrass, Woolly [1, 21]: 100
Plant response rating, Nutsedge, Yellow [2, 14]: 0
Plant response rating, Nutsedge, Yellow [2, 15]: 0
Plant response rating, Nutsedge, Yellow [2, 16]: 60
Plant response rating, Nutsedge, Yellow [2, 19]: 0
Plant response rating, Nutsedge, Yellow [2, 20]: 0
Plant response rating, Pigweed [3, 14]: 0
Plant response rating, Pigweed [3, 15]: 0
Plant response rating, Pigweed [3, 16]: 45
Plant response rating, Pigweed [3, 17]: 45
Plant response rating, Pigweed [3, 18]: 0
Plant response rating, Pigweed [3, 19]: 0
Plant response rating, Pigweed [3, 20]: 80
Plant response rating, Pigweed [3, 21]: 100
Plant response rating, Oat, Wild (wild oat (Avena fatua); [14]): 95
Plant response rating, Oat, Wild (wild oat (Avena fatua); [15]): 100
Plant response rating, Oat, Wild (wild oat (Avena fatua); [16]): 100
Plant response rating, Oat, Wild (wild oat (Avena fatua); [17]): 100
Plant response rating, Oat, Wild (wild oat (Avena fatua); [18]): 30
Plant response rating, Oat, Wild (wild oat (Avena fatua); [19]): 70
Plant response rating, Oat, Wild (wild oat (Avena fatua); [20]): 80
Plant response rating, Oat, Wild (wild oat (Avena fatua); [21]): 95
Plant response rating, Ryegrass, Italian [4, 14]: 100
Plant response rating, Ryegrass, Italian [4, 15]: 100
Plant response rating, Ryegrass, Italian [4, 16]: 100
Plant response rating, Ryegrass, Italian [4, 17]: 100
Plant response rating, Ryegrass, Italian [4, 18]: 100
Plant response rating, Ryegrass, Italian [4, 19]: 100
Plant response rating, Ryegrass, Italian [4, 20]: 100
Plant response rating, Ryegrass, Italian [4, 21]: 100
Plant response rating, Foxtail, Green [5, 14]: 95
Plant response rating, Foxtail, Green [5, 15]: 100
Plant response rating, Foxtail, Green [5, 16]: 100
Plant response rating, Foxtail, Green [5, 17]: 100
Plant response rating, Foxtail, Green [5, 18]: 98
Plant response rating, Foxtail, Green [5, 19]: 100
Plant response rating, Foxtail, Green [5, 20]: 100
Plant response rating, Foxtail, Green [5, 21]: 100
Plant response rating, Galium ([6]; 125 g ai/ha, scale 0 to 100): 80
Plant response rating, Galium ([6]; 250 g ai/ha, scale 0 to 100): 90
Plant response rating, Nightshade, E. B. ([7]; 62 g ai/ha, scale 0 to 100): 0
Plant response rating, Nightshade, E. B. ([7]; 250 g ai/ha, scale 0 to 100): 100
Plant response rating, Johnsongrass [8, 14]: 0
Plant response rating, Johnsongrass [8, 15]: 0
Plant response rating, Johnsongrass [8, 16]: 85
Plant response rating, Johnsongrass [8, 17]: 90
Plant response rating, Johnsongrass [8, 18]: 0
Plant response rating, Johnsongrass [8, 19]: 100
Plant response rating, Johnsongrass [8, 20]: 100
Plant response rating, Johnsongrass [8, 21]: 100
Plant response rating, Morningglory [9, 14]: 0
Plant response rating, Morningglory [9, 15]: 0
Plant response rating, Morningglory [9, 16]: 0
Plant response rating, Morningglory [9, 17]: 0
Plant response rating, Morningglory [9, 18]: 0
Plant response rating, Morningglory [9, 19]: 0
Plant response rating, Morningglory [9, 20]: 0
Plant response rating, Morningglory [9, 21]: 0
Blackgrass plant response rating ([10]; 250 g ai/ha, preemergence, 0-100 scale): 100
Plant response rating, Blackgrass [10, 14]: 95
Plant response rating, Blackgrass [10, 15]: 100
Plant response rating, Blackgrass [10, 16]: 100
Plant response rating, Blackgrass [10, 17]: 100
Plant response rating, Blackgrass [10, 18]: 100
Plant response rating, Blackgrass [10, 19]: 100
Plant response rating, Blackgrass [10, 20]: 100
Plant response rating, Velvetleaf [11, 14]: 0
Plant response rating, Velvetleaf [11, 15]: 0
Plant response rating, Velvetleaf [11, 16]: 0
Plant response rating, Velvetleaf [11, 17]: 10
Plant response rating, Velvetleaf [11, 18]: 0
Plant response rating, Velvetleaf [11, 19]: 0
Plant response rating, Velvetleaf [11, 20]: 0
Plant response rating, Velvetleaf [11, 21]: 0
Plant response rating, Foxtail, Giant [12, 14]: 100
Plant response rating, Foxtail, Giant [12, 15]: 100
Plant response rating, Foxtail, Giant [12, 16]: 100
Plant response rating, Foxtail, Giant [12, 17]: 100
Plant response rating, Foxtail, Giant [12, 18]: 98
Plant response rating, Foxtail, Giant [12, 19]: 100
Plant response rating, Foxtail, Giant [12, 20]: 100
Plant response rating, Foxtail, Giant [12, 21]: 100
Plant response rating, Bromegrass, Downy [13, 14]: 5
Plant response rating, Bromegrass, Downy [13, 15]: 50
Plant response rating, Bromegrass, Downy [13, 16]: 50
Plant response rating, Bromegrass, Downy [13, 18]: 40
Plant response rating, Bromegrass, Downy [13, 19]: 85
Plant response rating, Bromegrass, Downy [13, 20]: 98
Plant response rating, Bromegrass, Downy ([13]; Preemergence, 250 g ai/ha, scale 0 to 100 (0 no effect, 100 complete control)): 100

Cc1cc(-c2ccc(Cl)cc2)nn1-c1c(OS(=O)(=O)C(C)C)cnn(C)c1=O [Compound 50]
Plant response rating, Cupgrass, Woolly [1, 22]: 75
Plant response rating, Cupgrass, Woolly [1, 18]: 98
Plant response rating, Cupgrass, Woolly [1, 19]: 100
Cupgrass, Woolly plant response rating [1, 23]: 20
Plant response rating, Nutsedge, Yellow [2, 22]: 0
Plant response rating, Nutsedge, Yellow [2, 24]: 0
Plant response rating, Nutsedge, Yellow [2, 19]: 0
Nutsedge, Yellow plant response rating [2, 23]: 0
Plant response rating, Pigweed [3, 22]: 0
Plant response rating, Pigweed [3, 24]: 0
Plant response rating, Pigweed [3, 19]: 0
Pigweed plant response rating [3, 23]: 0
Plant response rating, Oat, Wild (wild oat (Avena fatua); [22]): 40
Plant response rating, Oat, Wild (wild oat (Avena fatua); [24]): 40
Plant response rating, Oat, Wild (wild oat (Avena fatua); [19]): 70
Oat, Wild plant response rating (wild oat (Avena fatua); [23]): 20
Plant response rating, Ryegrass, Italian [4, 22]: 0
Plant response rating, Ryegrass, Italian [4, 24]: 5
Plant response rating, Ryegrass, Italian [4, 19]: 100
Ryegrass, Italian plant response rating [4, 23]: 0
Plant response rating, Foxtail, Green [5, 22]: 95
Plant response rating, Foxtail, Green [5, 18]: 98
Plant response rating, Foxtail, Green [5, 19]: 100
Foxtail, Green plant response rating [5, 23]: 0
Plant response rating, Galium [6, 25]: 0
Galium plant response rating ([6]; 8 g ai/ha, scale 0 to 100): 0
Plant response rating, Nightshade, E. B. [7, 25]: 0
Plant response rating, Nightshade, E. B. ([7]; 31 g ai/ha, scale 0 to 100 (0 no effect, 100 complete control)): 100
Plant response rating, Nightshade, E. B. ([7]; 62 g ai/ha, scale 0 to 100): 100
Nightshade, E. B. plant response rating ([7]; 8 g ai/ha, scale 0 to 100): 0
Plant response rating, Johnsongrass [8, 22]: 95
Plant response rating, Johnsongrass [8, 18]: 98
Plant response rating, Johnsongrass [8, 19]: 100
Johnsongrass plant response rating [8, 23]: 70
Plant response rating, Morningglory [9, 22]: 0
Plant response rating, Morningglory [9, 24]: 0
Plant response rating, Morningglory [9, 19]: 30
Morningglory plant response rating [9, 23]: 0
Plant response rating, Blackgrass [10, 22]: 0
Plant response rating, Blackgrass [10, 18]: 60
Plant response rating, Blackgrass [10, 19]: 95
Blackgrass plant response rating [10, 23]: 0
Plant response rating, Velvetleaf [11, 22]: 0
Plant response rating, Velvetleaf [11, 24]: 0
Plant response rating, Velvetleaf ([11]; Preemergence, 62 g ai/ha, 0 to 100 scale, 0 no effect, 100 complete control): 0
Velvetleaf plant response rating [11, 23]: 0
Plant response rating, Foxtail, Giant [12, 22]: 98
Plant response rating, Foxtail, Giant [12, 18]: 100
Plant response rating, Foxtail, Giant [12, 19]: 100
Foxtail, Giant plant response rating [12, 23]: 20
Plant response rating, Bromegrass, Downy [13, 22]: 0
Plant response rating, Bromegrass, Downy [13, 18]: 0
Plant response rating, Bromegrass, Downy [13, 19]: 0
Bromegrass, Downy plant response rating [13, 23]: 0
